# Results taken from paper PMC8387461, “T cell receptor recognition of hybrid insulin peptides bound to HLA-DQ8” (Nature Communications, 2021).
# Experiments:
# T cells = conditions: HIP from MHC-II peptidome of pancreatic islets and lymph nodes of NOD mice; cited from earlier work
# HLA-DQ8 [1] = experiment: Size exclusion chromatography, aggregate versus monomer of HLA-DQ8-peptide; format: physicochemical, human; conditions: SEC, data not shown
# From the text: The proinsulin C-peptide epitope (PI40-54 […]; predicted binding register in bold) lacks both a preferred acidic residue at P9 and aliphatic residue at P4, whereas HIP ([…]) lacks the preferred P4 residue. […] To overcome this, as undertaken previously with a modified B:11-23 peptide and HLA-DQ8[22], we engineered a construct with a disulfide bond between p11 of the HIP peptide or proinsulin C-peptide and HLA-DQ8α I72C to produce HLA-DQ8αΙ72C-CpepL11C (HLA-DQ8-CpepL11C; […]; predicted binding register in bold, P11Cys in italics) and HLA-DQ8αΙ72C-HIPL11C (HLA-DQ8-HIPL11C; […]; predicted binding register in bold, proinsulin C-peptide derived underlined, IAPP2 derived bold italics and P11Cys italics).
# HLA-DQ8 [2] = conditions: cited from earlier work
# From the text: (§1) Yang et al.[39] described a TRBV5-1^+ HLA-DQ8 restricted T cell clone isolated by insulin B:9-23 peptide (B:9-23 […]) tetramer staining. […] The set of mutations comprised P1AtoE, P6CtoA and P9RtoE and P11FtoC ([…]; mutated residues in italics, P1-P9 register in bold)[22],[24],[39]. This engineered epitope was used as a model put forw ...
# T1D3 T cell clone = conditions: cited from earlier work
# From the text: as §1
# CD4+ T cell clone A1.9 = experiment: T cell stimulation assay, IFNγ ELISA, clone A1.9; format: cell-based, human; conditions: primary clone A1.9, APC EBV-KJ, 24 h, 31-mer C-peptide versus 15mer HIP titration
# Experimental: Fig. 2 Comparison of the stimulatory capacity of full-length proinsulin C-peptide and HIP on T1D CD4 + T cell clones. […] Titration of full-length 31-mer C-peptide ([…], (open circles) and 15mer C-peptide-IAPP2 HIP ([…] (filled circles). Antigen presenting cells (APC) were the EBV line, EBV-KJ, (2 × 10^4 cells/well). APC were cultured for 24 h with the same number (2 × 10^4 cells/well) of the primary CD4 + T-cell clone and the peptide concentration indicated. T-cell response to peptide were indicated by secretion of IFNγ which was measured in triplicate by ELISA and reported as pg/ml. Mean and standard deviations of triplicate IFNγ measurements are shown. Results are representative of two experiments for each clone.
# For primary T1D CD4+ T cell clones, cells were thawed and used directly in functional assays. For T cell stimulation assays, cloned CD4+ T cells were incubated with BLCL KJ (; HLA-DQ8 + : HLA-DQA1*03:01, HLA-DQB1*03:02), as APCs, together with synthetic peptides. For the alanine scan experiments, each peptide was added to a final concentration of 10 μM. T cell response to antigen was measured as interferon gamma (IFNγ) secretion into the culture media. The IFNγ concentration in the culture media was determined by ELISA (Biolegend).
# Supplementary Figure 8. […]
# type) at each position P-3 to P12 are shown. IFNγ was measured in triplicate by ELISA, concentrations are shown in pg/ml. […]
substance,measurement,setting,value
LQTLAL–NAARD [proinsulin C-peptide-IAPP2 HIP from NOD mice],T cell autoreactivity,T cells,had T cell autoreactivity
"GQVELGGGPGAGSLQ [PI40-54, reference compound]",stability of HLA-DQ8 complex (ratio of aggregate versus monomer),HLA-DQ8 [1],unstable HLA-DQ8 binary complexes
SHLVEALYLVCGERG [B:9-23],affinity for HLA-DQ8,HLA-DQ8 [2],poor affinity
same,reactivity of / recognition by TRBV5-1+ T1D3,T1D3 T cell clone,low reactivity
"EAEDLQVGQVELGGGPGAGSLQPLALEGSLQ [proinsulin C-peptide, full-length 31-mer proinsulin C-peptide, reference compound]",response of clone to HIP versus proinsulin C-peptide,CD4+ T cell clone A1.9,responds equally to proinsulin C-peptide or HIP
LVEELYLVAGEEGC [engineered insulin B:9-23 peptide],reactivity of / recognition by TRBV5-1+ T1D3,T1D3 T cell clone,recognised by the TRBV5-1^+ T1D3 TCR
